The source of these data is patent US12295983B2, “Use of extracts of the leaves of lemon verbena (Aloysia citriodora) for increasing the neuronal, cerebral availability of neurotransmitters selected from the group of serotonin, dopamine, noradrenaline” (Finzelberg GMBH & Co. KG, priority 2018, dated 2025).

The target of assay [1] is T1, serotonin reuptake in synaptosomes from rat cortex (Rattus norvegicus, UniProt P31652).
T1 construct: Freshly isolated synaptosomes from rats were used; from tissue; host or cells: synaptosomes from rat cortex
The assay can be described thus: Serotonin reuptake test with [3H]-serotonin in freshly isolated synaptosomes. The class given is biochemical. Particulars: ratio of reuptake IC50 values.
Method: Freshly isolated synaptosomes from rats were used according to Perovic and Müller [Perovic S, Müller W E, 1995, Arzneimittelforschung 45; 1145-1148] for a dopamine reuptake test, and a serotonin reuptake test, and a noradrenaline reuptake test. [^3H]-dopamine, [^3H]-noradrenaline and [^3H]-serotonin, respectively, served as the ligands. The test substance was incubated with the synaptosomes and the corresponding ligand for 15 min at 37° C. in the dark. The samples were then transferred to GF/C filter plates, and washed cold twice, and dried, before the filter-bound radioactivity was measured with a microtitration plate counter (Microbeta, Wallac, Finland). For determining the 100% reuptake, the experiment was performed without test substances. The measured value for incubation with corresponding inhibitors (GBR12909 in the dopamine reuptake inhibition, protriptyline in the noradrenaline reuptake inhibition, and imipramine hydrochloride for the serotonin reuptake inhibition) was considered as a 0% uptake.

In assay [2] the target is T1, serotonin reuptake in synaptosomes from rat cortex. Particulars: read-out: Serotonin (IC50 μg/ml); literature value, Markowitz et al.; cited from earlier work.
For assay [3], the system named is noradrenaline reuptake in synaptosomes from rat cortex. Particulars: literature value, cited from earlier work.
The target of assay [4] is T2, dopamine reuptake in synaptosomes from rat cortex (Rattus norvegicus, UniProt P23977).
T2 construct: Freshly isolated synaptosomes from rats were used; from tissue; host or cells: synaptosomes from rat cortex
The following applies: read-out: Dopamine (IC50 μg/ml), literature value, cited from earlier work.

Assay [5] relates to transgenic C. elegans strain CL4176 expressing human β-amyloid (Aβ 1-42). The assay can be described thus: β-Amyloid-induced toxicity (paralysis, PT50) in C. elegans model. It counts as in vivo, Caenorhabditis elegans. The following applies: 200 μg/ml; negative control 31.0 ± 0.4. How it is done: In order to test the effect on β-amyloid toxicity, the transgenic C. elegans strain CL4176, which can express human β-amyloid (Aβ 1-42), was employed. Aβ expression can be induced by increasing the temperature. Age-synchronized and treated worms were incubated at 16° C. for 48 hours. After increasing the temperature to 25° C. and incubation for 24 hours, the worms began to get paralyzed because of the toxicity of the Aβ oligomer. The paralysis was evaluated every 2 hours (experimental set-up according to Heiner et al.: Sideritis scardica extracts inhibit the aggregation of α-synuclein and β-amyloid peptides in Caenorhabditis elegans used as a model for neurodegenerative diseases. Planta Medica 81—PW_127, 2015). Substances that counteract this toxic effect of β-amyloid lead to a slower or later paralysis of the animals. Such substances delay the neurodegeneration, inter alia, in Alzheimer's dementia. The median (PT50), which is the time when exactly 50% of the nematodes were paralyzed, was used as a comparative value.

In assay [6] the test system is transgenic C. elegans strain CL2355 expressing human β-amyloid pan-neuronally. Nature of the assay: β-Amyloid-induced neuronal dysfunction, chemotaxis towards benzaldehyde. The class given is in vivo, Caenorhabditis elegans. Here is the method: β-Amyloid species can damage neurons and trigger a dysfunction of neuronally controlled behavior. The transgenic C. elegans strain CL2355 expresses human β-amyloid on a pan-neuronal level. This leads to cognitive disorders, such as reduced chemotactic movement towards an attractant (benzaldehyde). In the experiments, the chemotaxis index, i.e., the proportion of worms moved towards the attractant on the agar plate, was measured. […] The experiment was performed in accordance with […] et al.

Assay [7] relates to dopaminergic neurons of transgenic C. elegans strain BZ555. Nature of the assay: Protection of dopaminergic neurons from 6-OHDA-induced degeneration (GFP fluorescence). The class given is in vivo, Caenorhabditis elegans. The following applies: worms + 50 mM 6-OHDA + 100 μg/ml; negative control 34.3 ± 4.3. Here is the method:
6-Hydroxydopamine (6-OHDA) damages dopaminergic neurons, which is used in different animal models. The transgenic C. elegans strain BZ555 expresses green fluorescent protein in dopaminergic neurons. Thus, the 6-OHDA-induced neurodegeneration or the reduction thereof can be quantified by fluorescence microscopy. The worms were exposed to 50 mM 6-OHDA, which reduces the fluorescence intensity of the neurons because of the degeneration thereof. Bupropione, a selective noradrenaline and dopamine reuptake inhibitor (NDRI), serves as the positive control. Through the inhibition of the noradrenaline (NA) or dopamine (DA) transporters (reuptake), bupropion prevents the neurotoxin 6-OHDA from getting into and damaging the neurons.

pIC50: −log10 of the molar value. Where two headings read alike, the source gives them in different places.

T1 sequence (P31652 whole entry): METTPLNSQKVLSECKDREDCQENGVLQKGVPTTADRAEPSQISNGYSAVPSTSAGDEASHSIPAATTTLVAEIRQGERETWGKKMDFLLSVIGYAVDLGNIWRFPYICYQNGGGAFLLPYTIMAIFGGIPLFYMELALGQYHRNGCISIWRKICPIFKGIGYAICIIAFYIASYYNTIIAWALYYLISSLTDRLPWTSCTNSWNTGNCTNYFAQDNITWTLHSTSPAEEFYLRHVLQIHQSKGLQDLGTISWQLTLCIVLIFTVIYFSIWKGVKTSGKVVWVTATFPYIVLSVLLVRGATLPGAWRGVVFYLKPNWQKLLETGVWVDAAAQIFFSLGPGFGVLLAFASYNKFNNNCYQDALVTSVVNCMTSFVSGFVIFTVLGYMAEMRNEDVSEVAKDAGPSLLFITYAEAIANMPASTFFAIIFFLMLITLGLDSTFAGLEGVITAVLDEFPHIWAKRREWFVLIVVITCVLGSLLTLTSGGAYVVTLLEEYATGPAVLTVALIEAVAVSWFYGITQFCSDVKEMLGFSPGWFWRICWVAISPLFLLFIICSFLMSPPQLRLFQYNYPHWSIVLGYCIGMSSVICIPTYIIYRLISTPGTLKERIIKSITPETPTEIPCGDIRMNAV
T2 sequence (P23977 whole entry): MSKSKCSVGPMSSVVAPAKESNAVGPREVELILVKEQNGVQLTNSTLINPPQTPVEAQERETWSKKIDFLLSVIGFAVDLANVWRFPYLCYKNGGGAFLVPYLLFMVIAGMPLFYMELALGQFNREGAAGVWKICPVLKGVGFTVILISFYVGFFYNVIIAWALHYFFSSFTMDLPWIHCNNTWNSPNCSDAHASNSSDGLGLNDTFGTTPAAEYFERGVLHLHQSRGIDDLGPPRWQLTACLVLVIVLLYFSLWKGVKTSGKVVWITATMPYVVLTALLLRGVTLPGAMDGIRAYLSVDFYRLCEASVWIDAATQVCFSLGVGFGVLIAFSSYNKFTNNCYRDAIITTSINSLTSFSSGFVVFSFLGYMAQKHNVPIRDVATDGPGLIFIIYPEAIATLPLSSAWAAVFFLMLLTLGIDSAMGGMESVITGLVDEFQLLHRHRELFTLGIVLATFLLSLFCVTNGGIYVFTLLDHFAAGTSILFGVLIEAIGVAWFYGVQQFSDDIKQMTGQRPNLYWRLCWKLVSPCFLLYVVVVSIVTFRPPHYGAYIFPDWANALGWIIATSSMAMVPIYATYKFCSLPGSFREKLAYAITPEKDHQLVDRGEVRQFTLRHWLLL

Turning to `COC(=O)C(c1ccccc1)C1CCCCN1` (stereo not shown) [Methylphenidate], the “activity ratio of serotonin to noradrenaline (factor)” value in assay [1] is given as 86. The figures for the pIC50 in assay [2], in assay [4] (Markowitz et al.) and in assay [4] (Sommer et al.) were 4.73, 5.95 and 6.31, respectively. Moreover, the “Noradrenaline (IC50 μg/ml)” value in assay [3] (Markowitz et al.) is 0.052 µg/mL; in assay [3] (Sommer et al.), 0.050 µg/mL.

For `C[C@@H]1O[C@@H](O[C@@H]2[C@@H](O)[C@H](OCCc3ccc(O)c(O)c3)O[C@H](CO)[C@H]2OC(=O)/C=C/c2ccc(O)c(O)c2)[C@H](O)[C@H](O)[C@H]1O` [acteoside], the “PT50 value” in assay [5] came to 32.8 ± 0.3 h. In assay [6] (200 μg/ml), the “share of the chemotaxis index of the control strain CL2122 reached” value was “about 88%”. The Chemotaxis index in assay [6] (CL2355, 200 μg/ml, untreated 0.10 ± 0.04, control strain CL2122 0.50 ± 0.09) is listed as 0.45 ± 0.02 (p < 0.05).

For `CC(NC(C)(C)C)C(=O)c1cccc(Cl)c1` (stereo not shown) [bupropion], the “Fluorescence intensity [% of untreated group]” value in assay [7] is reported as 68.2 ± 7.7 % of untreated group.
